The source of these data is patent publication US11198710B2, “Transgenic plant having herbicide resistance” (priority 2016, dated 2021).

Each structure is given as a SMILES string. Some results are limits rather than exact numbers.

In assay [1] the test system is wild-type rapeseed plants (variety: Westar). Description: Rapeseed sensitivity test 2 (agar medium), wild type. It is filed as in vivo, Brassica napus. The following applies: 0.1 μM pyroxasulfone, 22° C., 2 weeks. From the text: In order to investigate the extent of pyroxasulfone resistance of the transgenic rapeseed plants comprising the […] gene introduced therein compared to wild-type plants, the growth of rapeseed was examined in an agar medium containing pyroxasulfone. Wild-type rapeseed plants (variety: Westar) and transgenic rapeseed plants comprising the TaQ8GTC0 gene introduced therein were subjected to the growth inhibitory test in an agar medium, so as to examine the resistance thereof to pyroxasulfone.
The medium (1 liter) used in the test was composed of 1× Murashige-Skoog (MS) media (a bag), thiamin hydrochloride (3 μg/ml), nicotinic acid (5 μg/ml), pyridoxin hydrochloride (0.5 μg/ml), and 1% (w/v) sucrose. The composition was added to a 1-liter beaker, a pH was adjusted to 5.7, and the volume of the composition was adjusted to 1 liter, followed by the addition of 8 g (0.8%) of agar. Thereafter, the composition was autoclaved, the temperature was cooled to room temperature, and pyroxasulfone (acetone solution) at a given concentration was added. […]
The sensitivity of rapeseed was examined in agar media comprising pyroxasulfone (0.1 μM, 1 μM, 10 μM, and 100 μM). […] Values in the table in FIGS. 41 and 42 are expressed as the mean±standard deviation (n=4 to 5). Values in FIG. 43 are expressed as the means (n=4 to 5).

The subject of the next assay is cultured rice cells. As to conditions: culture in a pyroxasulfone-containing liquid medium; cited from earlier work.
The subject of assay [2] is wild-type rapeseed plants (variety: Westar). Description: Rapeseed sensitivity test 1 (post-sowing/pre-emergence soil treatment), wild type. It is filed as in vivo, Brassica napus. Here is the method:
Wild-type rapeseed plants (variety: Westar) and transgenic rapeseed plants comprising the wheat GST gene introduced therein were subjected to Rapeseed sensitivity test 1 in plastic pots (length: 8 cm; width: 8 cm; height: 6 cm). The test was carried out in Fujino soil (sandy loam soil), and 4 seeds of wild-type rapeseed and 8 seeds of transgenic rapeseed were sown in each pot (sowing depth: 1 cm). Water dispersible granules containing 50% pyroxasulfone were applied at 5 different doses of 1, 4, 16, 63, and 250 g a.i./ha (n=3). Immediately after pyroxasulfone treatment, about 1 mm of rain was fallen with the use of artificial rainfall device, and water was supplied from the bottom of the pots. Thereafter, water was supplied from the bottom of the pot when the soil surface was dried in the pot, according to need.
The difference in the sensitivity of rapeseed to pyroxasulfone applied pre-emergence was examined (temperature: 22° C., fluorescent light), and whether or not the transgenic rapeseed plant comprising wheat GST had pyroxasulfone resistance was evaluated in terms of the plant height, the herbicidal symptoms, and the cotyledon growth. Specifically, heights of the plants were measured 2 weeks after seeds sowing of rapeseed and pyroxasulfone application, and the inhibition was assessed by comparison to control plants grown in the absence of pyroxauslfone (n=4 to 12). In FIGS. 37 to 39, “TaGST” stands for a transgenic rapeseed plant comprising the TaQ8GTC0 gene. Values in the table in FIG. 38 are expressed as the mean±standard deviation (n=4 to 12).

Regarding `Cn1nc(C(F)(F)F)c(CS(=O)(=O)C2=NOC(C)(C)C2)c1OC(F)F` [Pyroxasulfone, 3-[5-(difluoromethoxy)-1-methyl-3-(trifluoromethyl)pyrazol-4-ylmethylsulfonyl]-4,5-dihydro-5,5-dimethyl-1,2-oxazole], in assay [1], the “inhibition ratio on foliage leaf development” value came to 8.4±1.4% and the “inhibition ratio on plant height” value is 8.9±2.8%. In the assay on cultured rice cells, the “C15:0 (pentadecanoic acid) content” value is “remarkably increased” and the “content of very-long-chain fatty acid (VLCFA)” value is “drastically decreases”. The inhibition at 16 g/ha in assay [2] (Brassica napus, 336 h, 16 g a.i./ha, 2 weeks after sowing and application, 22° C., read-out: shoot growth inhibition (plant height)) was found to be 61.9%. In assay [2] (pre-emergence soil treatment), the “dose at which cotyledon growth was substantially completely inhibited” value was at least 16 g a.i./ha and the “dose at which cotyledons became dark green (herbicidal symptoms)” value was at least 16 g a.i./ha.

As usually defined, the inhibition is the change of the read-out against control, counted positive when it falls.
